Measured values reported in patent US6140327A, “Morpholino-n-ethyl ester derivative of an indole sPLA2 inhibitor” (Eli Lilly and Company, priority 1999, dated 2000).

Key:
[1] = target: recombinant human secreted phospholipase A2; settings: cited from earlier work
[2] = target: recombinant human secreted phospholipase A2; settings: guinea pig lung tissue; sPLA2 10 ug/ml; read-out: Tissue test secreted PLA2 Apparent KB; cited from earlier work
[3] = Monkey Pharmacokinetic Study (bioavailability); type: in vivo; settings: conclusion compared with other esters of the parent and the 2-methyl homolog, oral administration
Description: Plasma was assayed by HPLC to measure concentrations of the different sPLA2 inhibitors (measured as free acids).
Cmax (maximal plasma concentrations), and AUC values were determined from the mean plasma concentration-time profiles.

Structure (SMILES)	IC50 ([1]; chromogenic assay, 3-4 tests, read-out: Inhibition of human secreted PLA2 IC50 ± mean deviation (3-4 tests)) [nM]	inhibiting sPLA2 (conclusion in words) ([1]; conclusion of Table I)	Kb [2] [nM]	bioavailability (in words) [3]	bioavailability (in words) ([3]; listed as formula (I))
CCc1c(C(=O)C(N)=O)c2c(OCC(=O)O)cccc2n1Cc1ccccc1 [formula (II), ((3-(2-amino-1,2-dioxoethyl)-2-ethyl-1-(phenylmethyl)-1H-indol-4-yl)oxy)acetic acid]	9 ± 1.73	highly active in inhibiting sPLA2	88.7 ± 18.2	–	–
CCc1c(C(=O)C(N)=O)c2c(OCC(=O)OCCN3CCOCC3)cccc2n1Cc1ccccc1 [Compound 1, ((3-(2-amino-1,2-dioxoethyl)-2-ethyl-1-(phenylmethyl)-1H-indol-4-yl)oxy)acetic acid morpholino-N-ethyl ester]	–	–	–	unexpectedly more bioavailable than other esters of the parent sPLA2 inhibitor of formula II and also more bioavailable than the 2-methyl homolog of the parent sPLA2 inhibitor of formula II	highly bioavailable upon oral administration compared to closely related ester type prodrugs
